Results on 2 compounds are retold here after patent US8071507B2, “Plant growth regulating and fungicidal compositions” (Syngenta Crop Protection, Inc., priority 2005, dated 2011).

SMILES strings stand for the structures.

Type in all cases: in vivo
The test system of one experiment is Rye. Description: Plant growth regulation (PGR), pre-emergence, rye. The note with it: 14 days. As to the method:
(§1) The compounds are sprayed with a vertical boom sprayer at the mentioned rates (ref. result-tables) pre-plant on the bare soil, then they are incorporated into the soil and the plants are seeded.

The test system of another experiment is Barley. The experiment in a line: Plant growth regulation (PGR), pre-emergence, barley. The following applies: 14 days. As to the method:
as §1

Another experiment concerns Soybean. Description: Plant growth regulation (PGR), pre-emergence, soybean. The note with it: 14 days. As to the method: as §1
The subject of experiment [1] is Winter rape “Colza d'hiver Aviso”. The experiment in a line: Plant growth regulation (PGR), post-emergence, winter rape. The note with it: 14 days after application. As to the method:
(§2) The plants are seeded and grown in a greenhouse until Growth Stage 12 (2 leafs unfolded). Then the compounds/mixture of the compounds are sprayed with a vertical boom sprayer top over the leafs.

The subject of the next experiment is Triticale. Description: Plant growth regulation (PGR), pre-emergence, triticale. The following applies: 14 days. As to the method: as §1
The subject of the next experiment is Oilseed Rape. Description: Plant growth regulation (PGR), pre-emergence, oilseed rape. The note with it: 14 days. As to the method:
as §1

The subject of a further experiment is Oat. Description: Plant growth regulation (PGR), pre-emergence, oat. The following applies: 14 days. As to the method: as §1
For another experiment, the system named is Summer rape “Hybridol”. Description: Plant growth regulation (PGR), post-emergence, summer rape. The following applies: 14 days after application. As to the method:
as §2

The next experiment relates to Wheat. The experiment in a line: Plant growth regulation (PGR), pre-emergence, wheat. The following applies: 14 days. As to the method:
as §1

As for `CC(C)(C)[C@@H](O)[C@@H](Cc1ccc(Cl)cc1)n1cncn1` (racemic) [Paclobutrazole, (2RS,3RS)-1-(4-chlorophenyl)-4,4-dimethyl-2-(1H-1,2,4-triazol-1-yl)-pentan-3-ol], the “Observed PGR in % (% Cobs)” value in the experiment on Rye (Paclobutrazole 25 mg/L) is reported as 25%; with Rye (Paclobutrazole 50 mg/L), 40%; in the experiment with Barley (Paclobutrazole 12.5 mg/L), 0%; in the experiment with Barley (Paclobutrazole 25 mg/L), 10%; with Barley (Paclobutrazole 50 mg/L), 30%; in the experiment on Soybean (Paclobutrazole 25 mg/L) it was 30%. Also, the “Observed PGR in % (% Cobs)” value is listed as 50% with Soybean (Paclobutrazole 50 mg/L); 30% in [1] (Paclobutrazole 31.3 g a.i./ha); 33% in [1] (Paclobutrazole 62.5 g a.i./ha); 10% with Triticale (Paclobutrazole 25 mg/L); 30% in the experiment on Triticale (Paclobutrazole 50 mg/L); 40% in the experiment with Oilseed Rape (Paclobutrazole 12.5 mg/L). Besides, the “Observed PGR in % (% Cobs)” value in the experiment with Oilseed Rape (Paclobutrazole 25 mg/L) worked out at 50%; in the experiment with Oilseed Rape (Paclobutrazole 50 mg/L), 55%; in the experiment on Oat (Paclobutrazole 25 mg/L) it was 30%; with Oat (Paclobutrazole 50 mg/L) it was 40%; with Summer rape “Hybridol” (Paclobutrazole 31.3 g a.i./ha), 17%; in the experiment on Summer rape “Hybridol” (Paclobutrazole 62.5 g a.i./ha), 23%. The “Observed PGR in % (% Cobs)” value in the experiment with Wheat (Paclobutrazole 12.5 mg/L) came out at 20%; in the experiment on Wheat (Paclobutrazole 25 mg/L), 25%; in the experiment with Wheat (Paclobutrazole 50 mg/L), 40%.

For `CC1COC(Cn2cncn2)(c2ccc(Oc3ccc(Cl)cc3)cc2Cl)O1` (stereo not drawn) [Difenoconazole, 1-[2-[2-chloro-4-(4-chlorophenoxy)phenyl]-4-methyl-1,3-dioxolan-2-ylmethyl]-1H-1,2,4-triazole], the “Observed PGR in % (% Cobs)” value with Rye (Difenoconazole 50 mg/L), with Rye (Difenoconazole 100 mg/L), in the experiment on Barley (Difenoconazole 25 mg/L), in the experiment on Barley (Difenoconazole 50 mg/L), in the experiment on Barley (Difenoconazole 100 mg/L) and with Soybean (Difenoconazole 50 mg/L) was 0% each time. The “Observed PGR in % (% Cobs)” value (in the experiment on Soybean (Difenoconazole 100 mg/L); in experiment [1] (Difenoconazole 62.5 g a.i./ha); in [1] (Difenoconazole 125 g a.i./ha); in the experiment with Triticale (Difenoconazole 50 mg/L); in the experiment on Triticale (Difenoconazole 100 mg/L); in the experiment with Oilseed Rape (Difenoconazole 25 mg/L)) was 0% throughout. Besides, the “Observed PGR in % (% Cobs)” value in the experiment on Oilseed Rape (Difenoconazole 50 mg/L), in the experiment on Oilseed Rape (Difenoconazole 100 mg/L), in the experiment with Oat (Difenoconazole 50 mg/L), in the experiment with Oat (Difenoconazole 100 mg/L), with Summer rape “Hybridol” (Difenoconazole 62.5 g a.i./ha) and in the experiment on Summer rape “Hybridol” (Difenoconazole 125 g a.i./ha) was 0% in each case. Further, the “Observed PGR in % (% Cobs)” value in the experiment on Wheat (Difenoconazole 25 mg/L), in the experiment with Wheat (Difenoconazole 50 mg/L) and in the experiment with Wheat (Difenoconazole 100 mg/L) was 0% in each case.
